Data: patent US20250352395A1, “ANTIMICROBIAL HEMOSTATIC DEVICES AND METHODS OF USE AND MAKING” (TELEFLEX LIFE SCIENCES II LLC, priority 2024, published 2025)
Where a name gives a salt, the structure may show the parent alone.

Columns and labels:
whole sheep blood = test: Tilt Tube Clot Test; format: biochemical; details: Example 3
Protocol: Beakers containing the mixtures were placed on a magnetic stirrer with a stirring rod placed therein. The stir plate was set to 300 RPM. Once the mixture appeared uniform, 130 μL of the mixture was pipetted into each of the appropriately labeled tubes. 20 samples per concentration were used. The samples were tested in a Tilt Tube Clot Test method described below. A water bath was prepared to 37±1° C., and a test tube holder was placed therein. One mL of whole sheep blood at 37° C. was pipetted into each test tube. 150 μL of CaCl2 at 37° C. was then pipetted into a tube and a timer was then started (time “0”). Tubes were capped and gently shaken twice to ensure that the CaCl2 was completely mixed with the blood, and then placed in the water bath. Tubes were tilted by 90° at 15 second intervals, beginning when the timer reads 45 seconds. The time to clot was determined by visual inspection and the clot time was recorded. A clot is defined as a solid mass that may or may not adhere to bottom of test tube. The average clot time for control blood and hemostatic agents was then calculated. […] Samples from Tests 11-13 and Test 10 from Example 2 were then further separated into 0.5″ by 0.5″ squares and added to test tubes. A Tilt Tube Clot Test, as described in Example 1, was performed.

[1] = Appearance of coated gauze after drying at 80° C. for 24 hours; format: physicochemical; details: exposure to 80° C. for 24 hours
Protocol: To coat the gauze, 20 mL of the coating mixture was poured into a flatbottom glass dish and then the gauze dipped into the mixture. The gauze was then lifted and allowed to drip. The coated gauze was placed on the wire rack and dried at 80° C. for 24 hrs. After drying was complete, samples were taken from the oven and remeasured for weight and moisture.
After coating, there were noticeable white clumps on the gauze.

[2] = Observation of salt dissolution in DI water during coating; format: physicochemical; details: Example 3 coating mixture, 0.39 g in 100 mL DI water

appearance after drying [1]	dissolution in DI water [2]	SMILES	clot time (whole sheep blood; tested concentrations for CHA (300 and 50 μg/cm^2 targeted)) [s]	clot time (whole sheep blood; estimated 300 μg/cm^2, at some individual data points)
discolored, turning a yellow/orange		CC(=O)O.CC(=O)O.NC(=N\CCCCCC/N=C(N)/N=C(\N)Nc1ccc(Cl)cc1)/N=C(\N)Nc1ccc(Cl)cc1 [CHA, Chlorhexidine diacetate]	≥ 150	
	did not dissolve	[H]/N=C(\N/C(=N/[H])NCCCCCCNC(=N)NC(=N)Nc1ccc(Cl)cc1)Nc1ccc(Cl)cc1 [CHD, Chlorhexidine dihydrochloride]		less than 150 seconds
